# From patent US20230141783A1, “DIFFERENT FORMS OF 6-CHLORO-2-ETHYL-N-(4-(4-(4-(TRIFLUOROMETHOXY)PHENYL)PIPERIDINE-1-YL)BENZYL)IMIDAZO[1,2-A]PYRIDINE-3-CARBOXAMIDE” (priority 2019, published 2023)
# Where “and” joins values, the source holds several entries; their conditions need not be identical. Equal values may be shown once. Entries after “also recorded” stand apart in the source; their conditions may differ. Read-outs that look alike come from different tables or passages of the source.
# How the values were obtained:
# [1] = Long-term stability at 25° C./60% RH (HPLC); format: physicochemical; conditions: 25° C. and 60% RH for up to 60 months; ditosylate
# [2] = Stability under accelerated conditions 40° C./75% RH (HPLC); format: physicochemical; conditions: 40° C. and 75% RH up to 6 months
# [3] = Exposing Forms A and C in 100% RH at RT (XRPD/DSC); format: physicochemical; conditions: 100% RH at RT for 6 days
# Description: Forms A and C were exposed in 100% RH environment at RT for 6 days; the solids were subsequently analyzed using DSC and XRPD.
# In FIGS. 1 and 17, the XRPD of sample of Form A (previous obtained form EA and IPA/MEK) before and after 6 days exposure to 100% RH are sketched. FIGS. 19 and 20 show the DSC scan of the same samples after exposure. […] FIGS. 18 and 21 show the result of the same treatment for Form C.
# [4] = DVS water absorption; format: physicochemical; conditions: 90% RH at RT
# Description: (FIGS. 4-5). It is the predominant form obtained in slurry experiments. Conversion from Form A to other XRPD patterns was mainly obtained from methanol (to Form C) or water (to pattern B) in the slurry medium. However, as it will be shown in further sections, Form C is converted to Form A upon re-slurry in the majority of other solvents (than methanol).
# FIGS. 9 to 11 show XRPD, DSC, and TGA of a solid with Form C. […] The XRPD peaks of pattern C are sharper than those of Form A. Form C is the predominant form when methanol is used as the slurry medium. However, Form “C” is not a methanol solvate form of the di-tosylate salt. Many reactive crystallization experiments using different solvents generated Form C immediately after salt formation.
# [5] = Humidity stress of generated salts (75% relative humidity, 7 days, XRPD); format: physicochemical; conditions: test for deliquescence, sample stressed for several days under 75% RH
# Experimental: Approximately 25 mg of generated salts of […] were added to vials and placed unsealed into a 75% relative humidity chamber (sealed cabinets with relative humidity conditions controlled by super-saturated salt solutions) at ambient temperature for 7 days prior to analysis by XRPD.
# [6] = Solubility estimation by aliquot addition and Clarity temperature cycling
# [7] = pH 4.5 buffer, pull time 23 hrs
# [8] = pH 6.8 buffer, pull time 22.5 hrs
# [9] = pH 7.5 buffer, pull time 72 hrs
compound,measurement,setting,value
"CCc1nc2ccc(Cl)cn2c1C(=O)NCc1ccc(N2CCC(c3ccc(OC(F)(F)F)cc3)CC2)cc1.Cc1ccc(S(=O)(=O)O)cc1.Cc1ccc(S(=O)(=O)O)cc1 [6-chloro-2-ethyl-N-(4-(4-(4-(trifluoromethoxy)phenyl)piperidine-1-yl)benzyl)imidazo[1,2-a]pyridine-3-carboxamide ditosylate]",long-term storage stability,[1],stable
same,stability under accelerated conditions,[2],stable
CCc1nc2ccc(Cl)cn2c1C(=O)NCc1ccc(N2CCC(c3ccc(OC(F)(F)F)cc3)CC2)cc1.Cc1ccc(S(=O)(=O)O)cc1.Cc1ccc(S(=O)(=O)O)cc1 [Ditosylate],HPLC concentration based on avg std,"pH 1, client result",1.45 (client result) mg/ml
CCc1nc2ccc(Cl)cn2c1C(=O)NCc1ccc(N2CCC(c3ccc(OC(F)(F)F)cc3)CC2)cc1.Cc1ccc(S(=O)(=O)O)cc1.Cc1ccc(S(=O)(=O)O)cc1 [Form C],crystalline form after exposure to 100% RH,[3],maintains its crystalline form; also recorded: crystal structure does not change
same,water absorption (DVS),[4],less than 0.3%
"CCc1nc2ccc(Cl)cn2c1C(=O)NCc1ccc(N2CCC(c3ccc(OC(F)(F)F)cc3)CC2)cc1.Cl [HCl salt, 6-chloro-2-ethyl-N-(4-(4-(4-(trifluoromethoxy)phenyl)piperidine-1-yl)benzyl)imidazo[1,2-a]pyridine-3-carboxamide mono-hydrochloride]",solid form after slurrying in buffer (XRPD),"all buffers tested (pH 1, 4.5, 6.8, 7.5), listed as HCl, mono-hydrochloride",Type 56
same,solid form after slurrying in buffer (XRPD),"all buffers tested (pH 1, 4.5, 6.8, 7.5), mono-hydrochloride",no conversion to the free base was observed
same,solubility in comparison to the di-tosylate salt,pH 1,better solubility
"CCc1nc2ccc(Cl)cn2c1C(=O)NCc1ccc(N2CCC(c3ccc(OC(F)(F)F)cc3)CC2)cc1.Cl [HCl salt, Type 36]",XRPD of solid isolated after pH solubility experiment,"pH 1 buffer, pull time 24 hrs",T56 HCl salt crystalline
same,HPLC concentration based on avg std,[7],0.000323 mg/mL and 0.000307 mg/mL
same,XRPD of solid isolated after pH solubility experiment,[7],T56 HCl salt crystalline
same,HPLC concentration based on avg std,[8],0.000285 mg/mL and 0.000277 mg/mL
same,XRPD of solid isolated after pH solubility experiment,[8],T56 HCl salt crystalline
same,HPLC concentration based on avg std,[9],3.28e-05 mg/mL and 3.57e-05 mg/mL
same,XRPD of solid isolated after pH solubility experiment,[9],T56 HCl salt crystalline
CCc1nc2ccc(Cl)cn2c1C(=O)NCc1ccc(N2CCC(c3ccc(OC(F)(F)F)cc3)CC2)cc1.Cc1ccc(S(=O)(=O)O)cc1.Cc1ccc(S(=O)(=O)O)cc1 [Pat A],RH stress (20C/75RH),[5],stable
same,RH stress (20C/75RH),[5]; 20C,stable
same,Aq. Sol,[6]; approximate values by aliquot addition on unbuffered water,<0.38 mg/mL
same,Aq. Sol,[6]; approximate values measured by aliquot addition in unbuffered water,<0.38 mg/mL
"CCc1nc2ccc(Cl)cn2c1C(=O)NCc1ccc(N2CCC(c3ccc(OC(F)(F)F)cc3)CC2)cc1.O=P(O)(O)O [Phosphate salt, Type 37]",XRPD of solid isolated after pH solubility experiment,pH 1,T56 HCl salt v. disordered
same,HPLC concentration based on avg std,"pH 1 buffer, pull time 24 hrs",5.33 mg/mL and 5.64 mg/mL
same,XRPD of solid isolated after pH solubility experiment,pH 4.5,Type 28 disordered
same,HPLC concentration based on avg std,[7],0.000384 mg/mL and 0.000336 mg/mL
same,XRPD of solid isolated after pH solubility experiment,pH 6.8,Type 28 disordered
same,HPLC concentration based on avg std,[8],0.00028 mg/mL and 0.000297 mg/mL
same,XRPD of solid isolated after pH solubility experiment,pH 7.5,Type 28 disordered
same,HPLC concentration based on avg std,[9],6.39e-05 mg/mL and 4.1e-05 mg/mL
CCc1nc2ccc(Cl)cn2c1C(=O)NCc1ccc(N2CCC(c3ccc(OC(F)(F)F)cc3)CC2)cc1 [Type 28],solubility,pH 4.5 and above,< 0.00037 mg/mL
CCc1nc2ccc(Cl)cn2c1C(=O)NCc1ccc(N2CCC(c3ccc(OC(F)(F)F)cc3)CC2)cc1.Cl [Type 36],solid form after slurrying in buffer (XRPD),"all buffers tested (pH 1, 4.5, 6.8, 7.5), listed as Type 36 HCl salt",converted to new type HCl salt Type 56
CCc1nc2ccc(Cl)cn2c1C(=O)NCc1ccc(N2CCC(c3ccc(OC(F)(F)F)cc3)CC2)cc1.Cl [Type 56],solubility,"pH 1 buffer, room temperature",~ 5.58 mg/mL
"CCc1nc2ccc(Cl)cn2c1C(=O)NCc1ccc(N2CCC(c3ccc(OC(F)(F)F)cc3)CC2)cc1.Cc1ccc(S(=O)(=O)O)cc1 [pTSA salt, Type 20]",HPLC concentration based on avg std,"pH 1 buffer, pull time 24 hrs",0.33 mg/mL and 0.32 mg/mL
same,XRPD of solid isolated after pH solubility experiment,"pH 1 buffer, pull time 24 hrs",p-TSA salt T20 crystalline
same,HPLC concentration based on avg std,[7],0.000366 mg/mL and 0.000333 mg/mL
same,XRPD of solid isolated after pH solubility experiment,[7],Type 28 disordered
same,HPLC concentration based on avg std,[8],0.000312 mg/mL and 0.000307 mg/mL
same,XRPD of solid isolated after pH solubility experiment,[8],Type 28 disordered
same,XRPD of solid isolated after pH solubility experiment,[9],Type 28 disordered
"CCc1nc2ccc(Cl)cn2c1C(=O)NCc1ccc(N2CCC(c3ccc(OC(F)(F)F)cc3)CC2)cc1.O=P(O)(O)O [phosphate salt, 6-chloro-2-ethyl-N-(4-(4-(4-(trifluoromethoxy)phenyl)piperidine-1-yl)benzyl)imidazo[1,2-a]pyridine-3-carboxamide mono-phosphate]",solid form after slurrying in buffer (XRPD),"all buffers tested (pH 1, 4.5, 6.8, 7.5)",not stable
same,solubility in comparison to the di-tosylate salt,"low pH, especially around pH1",better solubility
same,solid form after slurrying in buffer (XRPD),"pH 1 buffer, listed as Phosphate salt, mono-phosphate",converted to HCl Type 56
same,solid form after slurrying in buffer (XRPD),"pH 1 buffer, mono-phosphate","converted to a new HCl salt, Type 56"
same,solid form after slurrying in buffer (XRPD),pH 4.5 and above,converted to freebase
